What was measured:
[1] = biological target: T1, Dipeptidyl peptidase 9 (DPP9) (Homo sapiens, UniProt Q86TI2); test: Serine protease inhibition: DPP9; type: biochemical, mammalian; details: Table 8B; read-out: IC50 DPP9
T1 construct: purchased BPS Bioscience 80090
Protocol: (§1) The effect of selected BLIs on the enzymatic activity of some common mammalian serine proteases was evaluated.
(§2) 50 μl of the diluted enzyme was mixed with 50 μl of inhibitor at various concentrations and 50 μl of corresponding buffer (Table 7). Reaction mixtures were incubated for 10 min at 37° C. Subsequently, 50 μl of corresponding substrate (Table 7) was added and absorbance or fluorescence was monitored for 30 min on SpectraMax M2 plate reader (Molecular Devices). 4-(2-Aminoethyl)benzenesulfonyl fluoride hydrochloride (AEBSF) and leupeptin were used as positive controls. Rates of reaction were calculated and presented relative to “no treatment” control.

[2] = biological target: T2, Dipeptidyl peptidase 8 (DPP8) (Homo sapiens, UniProt Q6V1X1); test: Serine protease inhibition: DPP8; type: biochemical, mammalian; details: Table 8B; read-out: IC50 DPP8
T2 construct: purchased BPS Bioscience 80080
Protocol: as §1, §2

PAM1032/KPC-2 = test: Biapenem potentiation in PAM1032/KPC-2 (MexAB-OprM overexpressed); type: cell-based, Pseudomonas aeruginosa; details: BLI potency to decrease biapenem MIC 64-fold, 32 to 0.5 μg/ml; efflux proficient strain
Protocol: (§3) Efflux of BLIs from Pseudomonas aeruginosa by the MexAB-OprM efflux pump was also evaluated. […] Due to expression of KPC-2 both strains became resistant to biapenem. […] Potency of BLIs to potentiate biapenem in these strains was determined. […] The ratio of MPC64 values for each BLI in PAM1032/KPC-2 (efflux proficient) and PAM1154/KPC-2 (efflux deficient) was determined to generate the Efflux Index (EI).

PAM1154/KPC-2 = test: Biapenem potentiation in PAM1154/KPC-2 (MexAB-OprM lacking); type: cell-based, Pseudomonas aeruginosa
Protocol: as §3

KP1009 (CTX-M-15) = test: Potentiation of tigemonam, strain KP1009; details: minimum BLI concentration inhibiting growth with 4 μg/mL tigemonam
Elastase = biological target: T3, Elastase (Sus scrofa, UniProt P00772); test: Serine protease inhibition: elastase; type: biochemical, mammalian; details: Table 8A, class symbols; read-out: IC50 Elastase
T3 construct: purchased Calbiochem 324682
Protocol: as §1, §2

ec308 (SHV-5) [3] = test: Potentiation of tigemonam, strain ec308; type: cell-based; details: minimum BLI concentration inhibiting growth with 4 μg/mL tigemonam
KP1005 (CTX-M-14) = test: Potentiation of aztreonam, strain KP1005; type: cell-based
EC1010 (CMY-6) = type: cell-based
ECL1002 = test: Potentiation of aztreonam, strain ECL1002; type: cell-based; details: minimum BLI concentration inhibiting growth with 4 μg/mL aztreonam
KP1004 (K-2) = test: Potentiation of aztreonam, strain KP1004; type: cell-based; details: minimum BLI concentration inhibiting growth with 4 μg/mL aztreonam
ec302 (TEM-10) = test: Potentiation of aztreonam, strain ec302; type: cell-based
CathepsinA = biological target: T4, CathepsinA (Homo sapiens, UniProt P10619); test: Serine protease inhibition: cathepsin A; type: biochemical, mammalian; details: Table 8B; read-out: IC50 CathepsinA
T4 construct: purchased R&D Systems 1049-SE
T4 sequence (P10619 29-480): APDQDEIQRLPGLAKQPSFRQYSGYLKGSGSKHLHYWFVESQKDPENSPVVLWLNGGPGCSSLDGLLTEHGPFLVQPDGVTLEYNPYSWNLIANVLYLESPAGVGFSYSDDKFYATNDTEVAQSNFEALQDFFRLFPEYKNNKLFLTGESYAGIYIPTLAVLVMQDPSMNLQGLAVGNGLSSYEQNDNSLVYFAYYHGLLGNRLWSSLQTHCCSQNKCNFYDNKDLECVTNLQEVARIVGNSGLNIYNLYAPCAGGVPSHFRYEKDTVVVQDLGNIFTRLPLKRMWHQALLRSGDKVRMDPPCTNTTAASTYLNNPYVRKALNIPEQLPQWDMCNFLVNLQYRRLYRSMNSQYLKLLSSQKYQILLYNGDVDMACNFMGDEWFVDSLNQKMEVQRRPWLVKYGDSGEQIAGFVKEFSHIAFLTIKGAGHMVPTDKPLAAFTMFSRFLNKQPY
Method in brief: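 Each enzyme was preincubated with inhibitor at various concentrations in its corresponding buffer for 10 min at 37° C, after which its substrate was added. Absorbance or fluorescence was followed for 30 min, and reaction rates were expressed relative to an untreated control.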

SHV-12 = SHV-12 (Klebsiella pneumoniae, UniProt P0AD64, E235K/G234S/L31Q); test: Inhibition of nitrocefin cleavage by purified SHV-12; type: biochemical; details: nitrocefin reporter substrate, purified enzyme; read-out: Ki (SHV-12, NCF)
Method in brief: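 Readout: nitrocefin hydrolysis, A490 recorded every 10 sec over 10 min. Enzyme and inhibitor (varied concentrations) preincubated 10 min, RT, in reaction buffer before substrate addition.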

[4] = biological target: T5, Dipeptidyl peptidase 7 (DPP7) (Homo sapiens, UniProt Q9UHL4); test: Serine protease inhibition: DPP7; type: biochemical, mammalian; details: Table 8B; read-out: IC50 DPP7
T5 construct: purchased R&D Systems 3438-SE
Protocol: as §1, §2

Chymase = biological target: T6, Chymase (Homo sapiens, UniProt P23946); test: Serine protease inhibition: chymase; type: biochemical, mammalian; details: Table 8A, class symbols; read-out: IC50 Chymase
T6 construct: purchased Enzo Lifescience BML-SE281
T6 sequence (P23946 22-247): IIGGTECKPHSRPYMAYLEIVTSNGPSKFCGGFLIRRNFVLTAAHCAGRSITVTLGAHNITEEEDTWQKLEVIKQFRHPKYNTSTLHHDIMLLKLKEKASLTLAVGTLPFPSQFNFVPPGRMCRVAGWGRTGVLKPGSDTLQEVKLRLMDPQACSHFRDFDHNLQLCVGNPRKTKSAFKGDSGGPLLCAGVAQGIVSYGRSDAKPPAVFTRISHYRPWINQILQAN
Protocol: as §1, §2

ec308 (SHV-5) [5] = test: Potentiation of aztreonam, strain ec308; type: cell-based; details: minimum BLI concentration inhibiting growth with 4 μg/mL aztreonam
Plasmin = biological target: T7, Plasmin (Homo sapiens, UniProt P00747); test: Serine protease inhibition: plasmin; type: biochemical, mammalian; details: Table 8A, class symbols; read-out: IC50 Plasmin
T7 construct: Plasmin; MPBio; 19419890; purchased MPBio 19419890
Protocol: as §1, §2

CathepsinG = biological target: T8, CathepsinG (Homo sapiens, UniProt P08311); test: Serine protease inhibition: cathepsin G; type: biochemical, mammalian; details: Table 8B
T8 construct: purchased EMD Millipore 219373
T8 sequence (P08311 21-244): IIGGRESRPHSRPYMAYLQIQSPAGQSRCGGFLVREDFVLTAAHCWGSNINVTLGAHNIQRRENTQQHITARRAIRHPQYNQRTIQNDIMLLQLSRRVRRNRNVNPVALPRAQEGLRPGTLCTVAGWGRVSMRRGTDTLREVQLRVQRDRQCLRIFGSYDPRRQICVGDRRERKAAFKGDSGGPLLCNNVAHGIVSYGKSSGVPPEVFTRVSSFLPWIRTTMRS
Protocol: as §1, §2

T3 sequence (P00772 27-266): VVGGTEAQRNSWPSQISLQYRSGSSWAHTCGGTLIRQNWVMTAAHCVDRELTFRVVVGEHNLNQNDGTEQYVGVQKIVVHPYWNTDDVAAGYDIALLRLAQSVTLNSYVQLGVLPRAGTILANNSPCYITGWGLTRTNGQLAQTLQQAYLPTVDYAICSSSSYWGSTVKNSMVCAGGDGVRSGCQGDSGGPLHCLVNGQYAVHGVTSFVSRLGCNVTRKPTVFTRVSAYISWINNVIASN
T1 sequence (Q86TI2 whole entry): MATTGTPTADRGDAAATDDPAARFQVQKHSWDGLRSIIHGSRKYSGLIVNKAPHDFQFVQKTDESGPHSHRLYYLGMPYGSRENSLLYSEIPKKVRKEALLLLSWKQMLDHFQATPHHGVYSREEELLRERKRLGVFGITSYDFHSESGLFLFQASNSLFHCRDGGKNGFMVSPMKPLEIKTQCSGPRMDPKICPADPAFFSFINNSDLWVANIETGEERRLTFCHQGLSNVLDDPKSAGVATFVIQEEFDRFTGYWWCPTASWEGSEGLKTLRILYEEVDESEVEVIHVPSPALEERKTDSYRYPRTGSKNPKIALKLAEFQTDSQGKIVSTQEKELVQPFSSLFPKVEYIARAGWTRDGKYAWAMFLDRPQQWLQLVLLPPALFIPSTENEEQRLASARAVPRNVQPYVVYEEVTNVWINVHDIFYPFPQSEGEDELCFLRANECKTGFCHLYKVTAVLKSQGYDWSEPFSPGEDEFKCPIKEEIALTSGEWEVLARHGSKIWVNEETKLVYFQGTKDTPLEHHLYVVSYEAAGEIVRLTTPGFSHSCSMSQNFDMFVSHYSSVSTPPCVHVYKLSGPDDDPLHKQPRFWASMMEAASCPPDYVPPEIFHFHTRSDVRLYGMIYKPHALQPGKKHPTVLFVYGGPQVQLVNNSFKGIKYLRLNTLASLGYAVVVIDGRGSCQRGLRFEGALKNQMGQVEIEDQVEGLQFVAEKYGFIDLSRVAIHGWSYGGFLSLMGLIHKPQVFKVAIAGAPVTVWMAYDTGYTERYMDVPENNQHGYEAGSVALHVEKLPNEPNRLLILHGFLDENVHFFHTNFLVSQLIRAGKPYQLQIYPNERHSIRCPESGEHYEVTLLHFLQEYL
T2 sequence (Q6V1X1 whole entry): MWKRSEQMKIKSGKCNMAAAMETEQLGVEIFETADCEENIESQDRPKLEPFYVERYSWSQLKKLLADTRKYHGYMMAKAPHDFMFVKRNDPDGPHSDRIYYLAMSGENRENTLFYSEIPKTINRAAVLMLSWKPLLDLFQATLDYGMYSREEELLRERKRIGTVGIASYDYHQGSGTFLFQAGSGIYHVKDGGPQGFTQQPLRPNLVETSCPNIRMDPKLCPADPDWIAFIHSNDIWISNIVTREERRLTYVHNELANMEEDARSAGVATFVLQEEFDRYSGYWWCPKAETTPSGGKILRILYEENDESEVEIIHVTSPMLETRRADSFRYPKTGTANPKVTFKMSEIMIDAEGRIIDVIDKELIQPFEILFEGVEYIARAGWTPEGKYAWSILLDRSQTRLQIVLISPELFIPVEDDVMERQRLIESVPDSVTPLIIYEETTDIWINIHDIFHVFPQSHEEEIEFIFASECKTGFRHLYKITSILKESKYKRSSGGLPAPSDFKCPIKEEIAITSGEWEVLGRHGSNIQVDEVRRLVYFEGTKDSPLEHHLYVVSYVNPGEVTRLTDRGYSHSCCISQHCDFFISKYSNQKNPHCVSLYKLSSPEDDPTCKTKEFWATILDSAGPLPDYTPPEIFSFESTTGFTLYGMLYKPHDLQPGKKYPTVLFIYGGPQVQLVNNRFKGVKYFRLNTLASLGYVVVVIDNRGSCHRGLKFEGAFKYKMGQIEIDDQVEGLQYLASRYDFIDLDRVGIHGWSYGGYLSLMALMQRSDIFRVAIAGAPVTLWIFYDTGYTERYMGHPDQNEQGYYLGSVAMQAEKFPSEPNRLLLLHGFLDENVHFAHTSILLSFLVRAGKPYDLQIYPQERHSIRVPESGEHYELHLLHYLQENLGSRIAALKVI
T7 sequence (P00747 581-810 limits assumed, species assumed): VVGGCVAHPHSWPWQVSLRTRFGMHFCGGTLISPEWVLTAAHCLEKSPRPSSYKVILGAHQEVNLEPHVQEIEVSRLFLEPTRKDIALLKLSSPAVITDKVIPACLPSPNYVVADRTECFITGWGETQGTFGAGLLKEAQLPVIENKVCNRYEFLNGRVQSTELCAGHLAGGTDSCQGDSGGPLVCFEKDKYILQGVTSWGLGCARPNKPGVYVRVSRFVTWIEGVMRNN
T7 sequence (P00747 97-580 partner limits assumed, species assumed): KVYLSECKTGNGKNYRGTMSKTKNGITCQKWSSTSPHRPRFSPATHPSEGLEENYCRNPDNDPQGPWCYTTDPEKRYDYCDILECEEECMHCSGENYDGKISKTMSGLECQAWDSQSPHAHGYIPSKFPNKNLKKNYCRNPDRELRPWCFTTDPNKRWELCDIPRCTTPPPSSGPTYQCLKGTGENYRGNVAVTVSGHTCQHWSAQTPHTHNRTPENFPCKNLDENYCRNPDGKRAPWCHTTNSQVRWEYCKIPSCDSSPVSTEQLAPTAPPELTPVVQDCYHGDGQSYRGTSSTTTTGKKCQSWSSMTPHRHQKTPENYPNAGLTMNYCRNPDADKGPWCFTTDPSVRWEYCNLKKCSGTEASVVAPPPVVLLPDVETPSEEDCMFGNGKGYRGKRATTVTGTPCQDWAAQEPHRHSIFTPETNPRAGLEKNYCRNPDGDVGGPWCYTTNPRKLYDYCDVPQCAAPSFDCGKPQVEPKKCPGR
SHV-12, sequence (P0AD64 22-286 L31Q/G234S/E235K): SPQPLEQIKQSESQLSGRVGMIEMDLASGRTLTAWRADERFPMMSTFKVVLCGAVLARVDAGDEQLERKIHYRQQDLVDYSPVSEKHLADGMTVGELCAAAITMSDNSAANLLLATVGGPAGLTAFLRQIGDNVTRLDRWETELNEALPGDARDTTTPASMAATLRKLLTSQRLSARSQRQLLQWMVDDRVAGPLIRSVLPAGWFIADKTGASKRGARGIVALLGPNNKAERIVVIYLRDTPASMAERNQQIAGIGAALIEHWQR

Compound	IC50 [1]	IC50 [2]	PAM1032/KPC-2 Biapenem MPC64 (PAM1032/KPC-2)	PAM1154/KPC-2 Biapenem MPC64 (PAM1154/KPC-2)	TIG MPC4 CTX-M-15 KP1009 (KP1009 (CTX-M-15))	IC50 (Elastase)	TIG MPC4 SHV-5 ec308 (ec308 (SHV-5) [3])	AZT MPC4 CTX-M-14 KP1005 (KP1005 (CTX-M-14))	TIG MPC4 CMY-6 EC1010 (EC1010 (CMY-6))	AZT MPC4 ECL1002 (ECL1002)	AZT MPC4 K-2 KP1004 (KP1004 (K-2))	AZT MPC4 TEM-10 ec302 (ec302 (TEM-10))	IC50 (CathepsinA)	Ki (SHV-12)	IC50 [4]	IC50 (Chymase)	AZT MPC4 SHV-5 ec308 (ec308 (SHV-5) [5])	IC50 (Plasmin)	IC50 (CathepsinG)
O=C(Cc1cccs1)N[C@H]1Cc2cccc(C(=O)O)c2OB1O [CPD A, reference compound]	15 to 500 µM	15 to 500 µM	Z (Z Greater than 40)	X (key: X = Less than 10; Y = 10 to 40; Z Greater than 40)	Y (Y = MIC of 1 μg/mL to 10 μg/mL)	> 800 µM	Y (Y = MIC of 1 μg/mL to 10 μg/mL)	Y (key: X = MIC of less than 1 μg/mL; Y = MIC of 1 μg/mL to 10 μg/mL; Z = MIC of greater than 10 μg/mL)	X (key: X = MIC of less than 1 μg/mL; Y = MIC of 1 μg/mL to 10 μg/mL; Z = MIC of greater than 10 μg/mL)	Y (Y = MIC of 1 μg/mL to 10 μg/mL)	Y (Y = MIC of 1 μg/mL to 10 μg/mL)	Y (key: X = MIC of less than 1 μg/mL; Y = MIC of 1 μg/mL to 10 μg/mL; Z = MIC of greater than 10 μg/mL)	< 15 µM	< 0.001 µM	> 500 µM	< 300 µM	X (X = MIC of less than 1 μg/mL)	> 800 µM	< 15 µM
O=C(CSc1nncs1)N[C@H]1Cc2cccc(C(=O)O)c2OB1O [Compound 7, (R)-3-(2-(1,3,4-thiadiazol-2-ylthio)acetamido)-2-hydroxy-3,4-dihydro-2H-benzo[e][1,2]oxaborinine-8-carboxylic acid]	> 500 µM	15 to 500 µM	Z (Z Greater than 40)	X (key: X = Less than 10; Y = 10 to 40; Z Greater than 40)	X (X = MIC of less than 1 μg/mL)	> 800 µM	X (X = MIC of less than 1 μg/mL)	X (key: X = MIC of less than 1 μg/mL; Y = MIC of 1 μg/mL to 10 μg/mL; Z = MIC of greater than 10 μg/mL)	X (key: X = MIC of less than 1 μg/mL; Y = MIC of 1 μg/mL to 10 μg/mL; Z = MIC of greater than 10 μg/mL)	Y (Y = MIC of 1 μg/mL to 10 μg/mL)	Y (Y = MIC of 1 μg/mL to 10 μg/mL)	Y (key: X = MIC of less than 1 μg/mL; Y = MIC of 1 μg/mL to 10 μg/mL; Z = MIC of greater than 10 μg/mL)	15 to 500 µM	< 0.001 µM	> 500 µM	> 800 µM	X (X = MIC of less than 1 μg/mL)	> 800 µM	15 to 500 µM
Nc1nnc(SCC(=O)N[C@H]2Cc3cccc(C(=O)O)c3OB2O)s1 [Compound 5, (R)-3-(2-(5-amino-1,3,4-thiadiazol-2-ylthio)acetamido)-2-hydroxy-3,4-dihydro-2H-benzo[e][1,2]oxaborinine-8-carboxylic acid]	> 500 µM	15 to 500 µM	Y (Y = 10 to 40)	X (key: X = Less than 10; Y = 10 to 40; Z Greater than 40)	X (X = MIC of less than 1 μg/mL)	> 800 µM	Y (Y = MIC of 1 μg/mL to 10 μg/mL)	X (key: X = MIC of less than 1 μg/mL; Y = MIC of 1 μg/mL to 10 μg/mL; Z = MIC of greater than 10 μg/mL)	X (key: X = MIC of less than 1 μg/mL; Y = MIC of 1 μg/mL to 10 μg/mL; Z = MIC of greater than 10 μg/mL)	Y (Y = MIC of 1 μg/mL to 10 μg/mL)	Y (Y = MIC of 1 μg/mL to 10 μg/mL)	Y (key: X = MIC of less than 1 μg/mL; Y = MIC of 1 μg/mL to 10 μg/mL; Z = MIC of greater than 10 μg/mL)	15 to 500 µM		> 500 µM	300 to 800 µM	X (X = MIC of less than 1 μg/mL)	> 800 µM	< 15 µM

— patent US9101638B2, “Boronic acid derivatives and therapeutic uses thereof” (Rempex Pharmaceuticals, Inc., priority 2013, dated 2015)
